Measurements reported in BindingDB's records for PubMed 37235998 (Nanjing University of Chinese Medicine).

Legend:
[1] = molecular target: T1, Isocitrate dehydrogenase [NADP], mitochondrial (Homo sapiens, UniProt P48735); assay: Inhibition of N-terminal His-tagged human recombinant IDH2 R140Q mutant (41 to 452) expressed in baculovirus system incubated for 60 mins by size-exclusion chromatography analysis
T1 sequence (P48735 whole entry): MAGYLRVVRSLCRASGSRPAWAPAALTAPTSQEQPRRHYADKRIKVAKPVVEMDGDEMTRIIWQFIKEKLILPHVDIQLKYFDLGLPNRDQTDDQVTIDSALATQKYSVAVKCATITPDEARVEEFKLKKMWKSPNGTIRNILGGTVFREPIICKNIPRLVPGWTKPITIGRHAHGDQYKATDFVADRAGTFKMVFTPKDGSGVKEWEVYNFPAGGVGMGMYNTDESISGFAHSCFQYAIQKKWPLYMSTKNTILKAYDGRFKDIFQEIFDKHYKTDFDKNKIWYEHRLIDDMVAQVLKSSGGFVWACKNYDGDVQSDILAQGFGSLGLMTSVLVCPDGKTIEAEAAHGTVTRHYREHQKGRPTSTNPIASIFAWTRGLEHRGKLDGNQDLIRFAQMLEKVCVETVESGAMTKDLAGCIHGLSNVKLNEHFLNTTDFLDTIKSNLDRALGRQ

[2] = molecular target: Isocitrate dehydrogenase [NADP] cytoplasmic (Homo sapiens, UniProt O75874); assay: Inhibition of N-terminal His-tagged human recombinant IDH1 R132H mutant (1 to 414) expressed in Sf9 incubated for 60 mins by size-exclusion chromatography analysis
Isocitrate dehydrogenase [NADP] cytoplasmic, sequence (O75874 2-414 R132H limits assumed): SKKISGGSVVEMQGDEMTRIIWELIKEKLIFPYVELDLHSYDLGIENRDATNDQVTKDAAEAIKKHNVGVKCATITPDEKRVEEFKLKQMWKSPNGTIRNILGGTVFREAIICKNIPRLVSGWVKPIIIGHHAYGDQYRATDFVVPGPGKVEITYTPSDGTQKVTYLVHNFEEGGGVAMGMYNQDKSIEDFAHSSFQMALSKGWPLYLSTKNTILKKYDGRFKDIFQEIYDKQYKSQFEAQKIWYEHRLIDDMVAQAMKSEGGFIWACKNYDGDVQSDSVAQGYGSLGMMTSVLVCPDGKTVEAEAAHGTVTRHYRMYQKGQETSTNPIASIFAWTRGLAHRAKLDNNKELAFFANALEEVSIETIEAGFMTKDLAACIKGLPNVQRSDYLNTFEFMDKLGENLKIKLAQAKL

Row | Structure (SMILES) | IC50 [1] [nM] | IC50 [2] [nM]
1 | FC1(F)CCC(Nc2nc(NC3Cc4ccccc4C3)nc(-c3cccc(C(F)(F)F)n3)n2)C1 (stereo not drawn) [US10028961, Compound 152] | < 50 | < 50
2 | C[C@@H](Nc1nc(Nc2ccnc(C3(C#N)CC3)c2)nc(-c2cccc(C(F)(F)F)n2)n1)C(F)(F)F [US10028961, Compound 352] | < 50 | –
